Test results published in the PolyMetriX glass transition set.
± gives the standard deviation of the reports.

| Structure (SMILES) | glass transition temperature [°C] |
| --- | --- |
| *CC(*)(C)C(=O)OCC(C)(C)C (repeat unit) [Poly(neopentyl methacrylate) ] | 33 ± 3.7 |
| *CCCCCCOc1ccc(-c2cc(-c3ccccc3)c(-c3ccc(NC(=O)c4ccc(C(=O)Nc5ccc(-c6c(-c7ccccc7)cc(-c7ccc(O*)cc7)cc6-c6ccccc6)cc5)cc4)cc3)c(-c3ccccc3)c2)cc1 (repeat unit) | 127.00 |
| *CC(CS(C)(=O)=O)O* (repeat unit) | 85.00 |
| *c1ccc(Oc2ccc(P(=O)(c3ccccc3)c3ccc(Oc4ccc(-c5ccc(*)nc5)cc4)cc3)cc2)cc1 (repeat unit) | 257.00 |
| *CC(*)C(=O)Oc1ccccc1C(C)(C)C (repeat unit) | 72.00 |
| */C=C/C1CC(*)C([Si](C)(C)C)C1 (repeat unit) | 113.00 |
| *N1CCOC1(*)CC (repeat unit) | 55.00 |
| *CC(O)COc1ccc(C(C)(C)c2ccc(OCC(O)COc3cccc(NC(=O)c4cccc(C(=O)Nc5cccc(O*)c5)c4)c3)cc2)cc1 (repeat unit) | 133.00 |
| *CC(*)(C)C(=O)OCCCCCCN(C)c1ccc(N(C)C)cc1 (repeat unit) | 8.50 |
| *Oc1ccc(/C=C2\CCC/C(=C\c3ccc(OC(=O)CCCCCCCCC(*)=O)c(OC)c3)C2=O)cc1OC (repeat unit) | 48.1 |
| *c1cccc(Oc2cccc(Oc3cccc(N4C(=O)c5ccc(-c6ccc7c(c6)C(=O)N(*)C7=O)cc5C4=O)c3)c2)c1 (repeat unit) | 205.00 ± 3 |
| *CC(*)c1ccc(C(=O)OCCC)cc1 (repeat unit) | 92.00 |
| *Oc1c(OC)cc(-c2cc(OC)c(OC(=O)c3cccc(C(*)=O)c3)c(OC)c2)cc1OC (repeat unit) | 252.00 |
| *Oc1ccc(CC(NC(=O)CCc2ccc(OC(=O)CCCC(*)=O)cc2)C(=O)OC(C)C)cc1 (repeat unit) | 68.00 |
| *CCCCCCCCOC(=O)c1ccc2cc(C(=O)O*)ccc2c1 (repeat unit) | 60.00 |
| *CCCCCCCCC(Cl)C(*)Cl (repeat unit) | -30.00 |
| *CCCCCSS* (repeat unit) | -72.00 |
| *CC(*)(C)C(=O)OCCOCCOC (repeat unit) | 57.00 |
| *Oc1ccc2ccc(Oc3ccc(/C(=N/c4ccc(Oc5ccc(/N=C(\c6ccccc6)c6ccc(*)cc6)cc5)cc4)c4ccccc4)cc3)cc2c1 (repeat unit) | 165.00 |
| *OC1CCC(OC(=O)C(*)=O)CC1 (repeat unit) | 139.60 |

Results, then the molecule that gave them:

| glass transition temperature [°C] | Structure (SMILES) |
| --- | --- |
| 351.00 | *c1ccc2c(c1)C(=O)N(c1ccc(C(=O)Nc3ccc(C(c4ccc(NC(=O)c5ccc(N6C(=O)c7ccc(C(*)(C(F)(F)F)C(F)(F)F)cc7C6=O)cc5)cc4)(C(F)(F)F)C(F)(F)F)cc3)cc1)C2=O (repeat unit) |
| 224.00 | *C(=O)NCCN(CCNC(=O)c1ccc2c(c1)C(=O)N(c1ccc(Oc3ccc(N4C(=O)c5ccc(*)cc5C4=O)cc3)cc1)C2=O)c1ccc(/C=C/c2ccc([N+](=O)[O-])cc2)cc1 (repeat unit) |
| 304.00 | *c1ccc(-c2nc3cc(Oc4ccc5nc(-c6ccccc6)c(*)nc5c4)ccc3nc2-c2ccccc2)cc1 (repeat unit) |
| 35.00 | *CC(*)c1cccc(B(O[Si](C)(C)C)O[Si](C)(C)C)c1 (repeat unit) |
| 42.00 | *CC(COC(=O)O*)OCCCCOc1ccc(/C=C/c2ccc([N+](=O)[O-])cc2)cc1 (repeat unit) |
| 295.50 ± 11 | *c1ccc2c(c1)C(=O)N(c1ccc(Oc3ccc(N4C(=O)c5ccc(C(*)(C(F)(F)F)C(F)(F)F)cc5C4=O)cc3)cc1)C2=O (repeat unit) |
| -2.00 | *CC(*)(C)C(=O)OCc1ccc(OCCOCC)c(OCCOCC)c1 (repeat unit) |
| 272.00 | *Nc1cccc(/C=C/c2ccc(NC(=O)c3cccc(C(*)=O)c3)cc2)c1 (repeat unit) |
| 260.00 | *Oc1ccc(C(=O)c2ccc(Oc3ccc(C(=O)c4c(C(=O)c5ccc(*)cc5)c(-c5ccc(F)cc5)c(-c5ccc(F)cc5)c(-c5ccc(F)cc5)c4-c4ccc(F)cc4)cc3)cc2)cc1 (repeat unit) |
| 210.00 | *CCCCCCCCCCCCN1C(=O)c2cccc3c(-c4ccc5c6c(cccc46)C(=O)N(CCCCCCCCCCCCN4C(=O)c6ccc7c8ccc9c%10c(ccc(c%11ccc(c6c7%11)C4=O)c%108)C(=O)N(*)C9=O)C5=O)ccc(c23)C1=O (repeat unit) |
| -22.00 | *CC(*)C(=O)OCC(F)(F)C(F)C(F)(F)F (repeat unit) |
| 45.00 | *COC(=O)Nc1ccc(Cc2ccc(NC(=O)OCc3cocc3*)cc2)cc1 (repeat unit) |
| 200.00 | *C(=O)Oc1ccc(C(C)(C)c2ccc(OC(=O)c3ccc4c(c3)C(=O)N(c3ccc(Oc5ccc(N6C(=O)c7ccc(*)cc7C6=O)cc5)cc3)C4=O)cc2)cc1 (repeat unit) |
| 21.00 | *Oc1ccc(CC(NC(=O)CCc2ccc(OC(=O)CCCC(*)=O)cc2)C(=O)OCCOCCOCC)cc1 (repeat unit) |
| -100.00 | *CC(*)(C)C(=O)OCCCCCCCCCCCCCCCCCC (repeat unit) |
| 4.00 | *CCOCCOCCOCCOC(=O)c1ccc(-c2ccc(C(=O)O*)cc2)cc1 (repeat unit) |
| 287.00 | *c1ccc(-c2ccc(C3(*)CCCCC3)cc2)cc1 (repeat unit) |
| 135.00 | *Oc1ccc(Oc2ccc(/C(=N\c3ccccc3)c3ccc(Oc4ccc(Oc5cccc(*)n5)cc4)cc3)cc2)cc1 (repeat unit) |
| 296.00 | *C(=O)Nc1ccc(Oc2ccc(NC(=O)c3ccc(N4C(=O)c5ccc(*)cc5C4=O)cc3)cc2)cc1 (repeat unit) |
| 6.00 | *CCCOC(=O)Nc1cc(NC(=O)O*)ccc1C (repeat unit) |
| 260.00 | *c1ccc(Oc2ccc(-c3nc4cc(Oc5ccc(NC(=O)c6cc(C(=O)Nc7ccc(Oc8ccc9nc(-c%10ccccc%10)c(*)nc9c8)cc7)cc(N7C(=O)c8ccccc8C7=O)c6)cc5)ccc4nc3-c3ccccc3)cc2)cc1 (repeat unit) |
| 130.00 | *Nc1ccc(CC(C)(C)NC(=O)CCCCC(*)=O)cc1 (repeat unit) |
| 296.00 | *c1ccc2c(c1)C(=O)N(c1ccc(C(=O)Nc3ccc(Oc4ccc(-c5ccc(Oc6ccc(NC(=O)c7ccc(N8C(=O)c9ccc(C(*)(C(F)(F)F)C(F)(F)F)cc9C8=O)cc7)cc6)cc5)cc4)cc3)cc1)C2=O (repeat unit) |
| 72.00 | *CCCCCCCCCOC(=O)Nc1ccc(Cc2ccc(NC(=O)O*)cc2)cc1 (repeat unit) |
| 19.60 | *CCCCCCCCOc1ccc(C(C)(C)c2ccc(O*)cc2)cc1 (repeat unit) |
| 274.00 | *c1ccc(-c2ccc(N3C(=O)c4ccc(Oc5ccc(Oc6ccc7c(c6)C(=O)N(*)C7=O)cc5)cc4C3=O)c(OC)c2)cc1OC (repeat unit) |
| 60.00 | *CC(*)(F)C(=O)OCC(F)(F)C(F)(F)C(F)(F)C(F)F (repeat unit) |
